Assay results published in US20250090705A1, “STERILIZATION METHOD AND STERILIZATION DEVICE” (OSAKA UNIVERSITY, priority 2021, published 2025).
Read-outs that look alike come from different tables or passages of the source.

Tests used:
[1] = cited from earlier work
[2] = cited from earlier work; remark: listed apart in the source
[3] = half-time of peroxynitric acid solution versus temperature; format: physicochemical; settings: pH 2.9
Protocol: FIG. 10 is a graph showing half-time of a peroxynitric acid solution. As shown in the graph, the peroxynitric acid solution that has a lower temperature (which may be ambient temperature) has a longer half-time. For example, the peroxynitric acid solution that has pH of 2.9 has a half-time of 132 minutes at 2° C. of the temperature of the peroxynitric acid solution, has a half-time of 26 minutes at 10° C. of the temperature of the peroxynitric acid solution, has a half-time of 7.8 minutes at 20° C. of the temperature of the peroxynitric acid solution, has a half-time of 2 minutes at 30° C. of the temperature of the peroxynitric acid solution, and has a half-time of 0.6 minutes at 40° C. of the temperature of the peroxynitric acid solution. The half-time of the peroxynitric acid solution thus depends on temperature.

[4] = system: spore solution (Bacillus subtilis) on pig skin; assay: sixth sterilization test, contaminated pig skin model, CFU assay; format: cell-based; settings: peroxynitric acid solution 100 mM, approximately 0.3 L container, Bacillus subtilis spores
Excerpt: Subsequently, the following description will discuss, with reference to FIG. 8, a result of a sterilization test using the sterilization device 1 that generates peroxynitric acid gas by a nebulizer method. In the sterilization test shown in FIG. 8, with the aim of application to biological disinfection, a contaminated pig skin model was sterilized by the nebulizer method.
FIG. 8 is a graph showing a result of a sixth sterilization test using a contaminated pig skin model. A 10^6 CFU spore solution (Bacillus subtilis) was applied to pig skin that had been shaved, cleaned, and subjected to sterilization treatment in advance, and the pig skin was dried so as to be a contaminated model. Such a contaminated pig skin model was regarded as the sterilization target 22 and housed in the sterilization container 21 having a capacity of approximately 0.3 L. In so doing, a surface of the contaminated pig skin model was made perpendicular to a direction in which a gas containing the peroxynitric acid gas and the peroxynitric acid mist flowed. A molar concentration of the peroxynitric acid solution to be placed in the second container 12 was set to 100 mM. After the sterilization test, a stomachere was used to collect bacteria on not only a front surface but also a back surface of the contaminated pig skin model, and the CFU assay was carried out.

[5] = 1 atmospheric pressure, cited from earlier work
[6] = system: bacterial spores (Geobacillus stearothermophilu); assay: first and second sterilization tests, large container (90 L), nebulizer method, BI in sterilization bag, CFU assay; format: cell-based; settings: 90 L container, 10^5 CFU spores in glassine paper bag
Protocol: (§1) The following description will discuss, with reference to FIGS. 2 to 5, results of sterilization tests each using the sterilization device 1 that generates peroxynitric acid gas by a nebulizer method. Here, the sterilization tests were carried out with use of the sterilization device 1 that includes (i) the peroxynitric acid gas generation section 10, which is as illustrated in FIG. 1 and which generates the peroxynitric acid gas by a nebulizer method and (ii) the sterilization treatment section 20 in which the sterilization container 21 having a capacity of 90 L is used. The peroxynitric acid solution was used in an amount of approximately 15 mL per minute in the peroxynitric acid gas generation section 10. The peroxynitric acid mist and the peroxynitric acid gas in the sterilization container 21 were configured to be recirculated into the second container 12 instead of being discharged outside through the air outlet 24.
FIG. 2 is a graph showing a result of a first sterilization test using a large container. FIG. 3 is a graph showing a result of a second sterilization test using a large container. […]

[7] = system: bacterial spores (Geobacillus stearothermophilu); assay: third and fourth sterilization tests, large container (90 L), BI in sterilization bag, on-off test (turbidity of culture solution); format: cell-based; settings: 90 L container, 10^6 CFU spores in glassine paper bag
Protocol: as §1
FIG. 4 is a table showing a result of a third sterilization test using a large container. FIG. 5 is a table showing a result of a fourth sterilization test using a large container. The BI is one in which 10^6 CFU bacterial spores (Geobacillus stearothermophilu) are supported on a stainless steel disk and the stainless steel disk is in the sterilization bag 23 made of glassine paper. […]

[8] = system: bacterial spores (Geobacillus stearothermophilu); assay: fifth sterilization test, small container (approximately 0.3 L), BI in sterilization bag, CFU assay, survival curves, D value; format: cell-based
Excerpt: Subsequently, the following description will discuss, with reference to FIGS. 6 and 7, a result of a sterilization test using the sterilization device 1 that generates peroxynitric acid gas by a nebulizer method. The capacity of the sterilization container 21 was as large as 90 L in the sterilization tests in FIGS. 2 to 5, whereas the capacity of the sterilization container 21 was as small as approximately 0.3 L in the sterilization test in FIGS. 6 and 7. The peroxide solution was used in an amount of approximately 3 mL per minute in the peroxynitric acid gas generation section 10. The peroxynitric acid gas in the sterilization container 21 is discharged outside through the air outlet 24 instead of being recirculated into the second container 12.
FIG. 6 is a graph showing a result of a fifth sterilization test using a small container. The BI is one in which 10^5 CFU bacterial spores (Geobacillus stearothermophilu) are supported on a stainless steel disk and the stainless steel disk is in the sterilization bag 23 made of glassine paper. […]
FIG. 7 is a table showing microbicidal activity determined from each of the survival curves S10, S100, S200, S600a, and S600b that are shown in FIG. 6. […] A D value [s] is a time which is calculated from a survival curve and at which the number of living microorganisms reaches 1/10. […]

[9] = peroxynitric acid solution 10 mM
[10] = peroxynitric acid solution 600 mM

O=[N+]([O-])O [Nitric acid, nitric acid]
pKa [1]: approximately −1.4 | vapor pressure ([2]; 20° C.): 6.4 kPa

O=P(O)(O)O [phosphoric acid]
vapor pressure ([2]; 20° C.): 4 Pa

O=S(=O)(O)O [Sulfuric acid, sulfuric acid]
vapor pressure ([2]; 25° C.): 0.0067 Pa

peroxynitric acid [peroxynitric acid solution]
half-time ([3]; 2° C.): 132 min | half-time ([3]; 10° C.): 26 min | half-time ([3]; 20° C.): 7.8 min | half-time ([3]; 30° C.): 2 min | half-time ([3]; 40° C.): 0.6 min | time in which the contaminated pig skin model was sterilized [4]: 3 min | half-time ([5]; 4.55° C. (277.7 K)): 97 s | half-time ([5]; 24.85° C. (298 K)): 12 s | time in which the BI was sterilized (living microorganisms equal to or lower than detection limit) [6, 9]: 3 min | time in which the BI was sterilized (living microorganisms equal to or lower than detection limit) [6, 10]: 1 min | time in which the BI was sterilized (on-off test) [7, 9]: 10 min | time in which the BI was sterilized (on-off test) [7, 10]: 1 min | microbicidal activity from survival curves ([8]; 10, 100, 200 and 600 mM, approximately 0.3 L container, 10^5 CFU spores, CFU assay): higher molar concentration achieves higher microbicidal activity | microbicidal activity 1/D (reciprocal of D value) ([8]; calculated from survival curves S10, S100, S200, S600a, S600b): proportional to the molar concentration
